According to patent US5760041A, “4-aminoquinazoline EGFR Inhibitors” (American Cyanamid Company, priority 1997, dated 1998):
Read-outs that look alike come from different tables or passages of the source.

What was measured:
[1] = molecular target: T1, Epidermal Growth Factor Receptor Kinase (EGF-R) (Homo sapiens, UniProt P00533); experiment: Inhibition of Epidermal Growth Factor Receptor Kinase (EGF-R), phosphorylation of peptide substrate RR-SRC; type: biochemical; conditions: A431 membrane extract; average of number of tests
T1 construct: The enzyme was obtained as a membrane extract of A431 cells; (cells); host or cells: A431 cells (membrane extract)
T1 sequence (P00533 25-1210): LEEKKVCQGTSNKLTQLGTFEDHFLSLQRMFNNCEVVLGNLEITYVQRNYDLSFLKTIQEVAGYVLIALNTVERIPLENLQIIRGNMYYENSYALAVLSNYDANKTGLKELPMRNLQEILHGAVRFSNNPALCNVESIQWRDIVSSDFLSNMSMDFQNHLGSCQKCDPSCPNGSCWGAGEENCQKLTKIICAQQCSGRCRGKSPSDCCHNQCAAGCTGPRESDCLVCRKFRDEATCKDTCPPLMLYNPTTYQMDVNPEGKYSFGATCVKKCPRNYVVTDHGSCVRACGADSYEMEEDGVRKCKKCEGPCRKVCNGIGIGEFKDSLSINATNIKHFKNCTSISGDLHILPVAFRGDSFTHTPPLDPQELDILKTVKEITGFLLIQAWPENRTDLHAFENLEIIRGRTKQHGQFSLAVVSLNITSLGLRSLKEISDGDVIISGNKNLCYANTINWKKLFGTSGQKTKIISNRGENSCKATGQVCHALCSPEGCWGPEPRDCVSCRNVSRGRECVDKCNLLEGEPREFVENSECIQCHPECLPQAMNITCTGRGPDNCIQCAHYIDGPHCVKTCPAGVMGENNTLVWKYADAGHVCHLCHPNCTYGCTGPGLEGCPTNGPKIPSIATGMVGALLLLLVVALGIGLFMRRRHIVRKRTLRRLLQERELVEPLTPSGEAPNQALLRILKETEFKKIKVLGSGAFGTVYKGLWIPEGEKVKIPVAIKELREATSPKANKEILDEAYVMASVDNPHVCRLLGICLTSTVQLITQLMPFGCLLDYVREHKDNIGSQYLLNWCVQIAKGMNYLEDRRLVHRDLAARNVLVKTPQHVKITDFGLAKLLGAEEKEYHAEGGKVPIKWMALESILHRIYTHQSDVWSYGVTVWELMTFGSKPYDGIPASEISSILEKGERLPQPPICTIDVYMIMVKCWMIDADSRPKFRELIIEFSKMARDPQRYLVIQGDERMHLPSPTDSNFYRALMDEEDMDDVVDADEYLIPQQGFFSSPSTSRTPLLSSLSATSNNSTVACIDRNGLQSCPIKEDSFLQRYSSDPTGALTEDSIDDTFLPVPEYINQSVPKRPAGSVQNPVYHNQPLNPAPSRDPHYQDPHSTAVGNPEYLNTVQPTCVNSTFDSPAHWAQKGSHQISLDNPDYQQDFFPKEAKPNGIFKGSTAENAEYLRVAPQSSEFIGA
T1 sequence (P01133 971-1023 partner limits assumed): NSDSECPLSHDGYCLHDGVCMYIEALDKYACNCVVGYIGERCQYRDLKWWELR
Description: The % inhibition of the test compound was determined for at least three different concentrations and the IC50 value was evaluated from the dose response curve.
The CPM values were corrected for the background counts produced by ATP in the absence of the enzymatic reaction.

[2] = system: human epidermoid tumors (A431); experiment: In vivo inhibition of the growth of human epidermoid tumors (A431) in mice; conditions: for inhibition of tumor growth in vivo (in words): summary of Tables 4-7
Description: BALB/c nu/nu female mice (Charles River, Wilmington, Mass.) were used in the in vivo standard pharmacological test procedures. […] When tumors attained a mass of between 100 and 150 mg, the mice were randomized into treatment groups (day zero). Mice were treated IP once a day either on days 1, 5, and 9 or on days 1 through 10 post staging with doses of either 80, 40 or 20 mg/kg/dose of the compound to be evaluated in 0.2% Klucel. Control animals received no drug. Tumor mass was determined every 7 days [(length×width^2)/2] for 28 days post staging. Relative tumor growth (Mean tumor mass on day 7, 14, 21, and 28 divided by the mean tumor mass on day zero) is determined for each treatment group. The % T/C (Tumor/Control) is determined by dividing the relative tumor growth of the treated group by the relative tumor growth of the placebo group and multiplying by 100.

Neu-3T3 cells = experiment: Inhibition of cell growth, [3H]-thymidine incorporation, Neu-3T3; type: cell-based; conditions: Mus musculus, read-out: IC50, NEU-3T3
Description: (§1) Representative compounds of this invention were evaluated for their ability to inhibit the growth of the cell lines described below in vitro. The inhibition is quantitated by measuring the decrease in the incorporation of radio-labeled thymidine when the cells are grown in the presence of the inhibitor. A431 and SKBR3 cell lines are obtained from American Type Culture Collection, Rockville, Md. […] NHEK cells are obtained from Clonetics (San Diego, Calif.). Cells were routinely grown in a humidified incubator in 5% CO2 in air.
(§2) Cells were seeded at 10,000 cells/well in 96 well plates in complete media and allowed to grow to log phase. […] After overnight incubation in low serum (or EGF lacking) media, the compounds to be evaluated were added and cells remained in the presence of compounds for 48 to 72 hours. Media with test compound was then removed and complete media was added back. The cells were allowed to grow for 18 hours. This is followed by incubation in [^3 H]thymidine (1mCi/ml in serum/EGF media) for 4 hours. Cells were lysed in 0.5M NaOH for at least 30 min at 37° C. and radioactivity analyzed.
(§3) The cell growth inhibition data is provided below in TABLE 3. […] The % inhibition of the compound evaluated was determined for at least three different concentrations and the IC50 value evaluated from the dose response curve.
(§4) CPM(control) is in units of counts per minute and is a number expressing the amount of [^3 H]thymidine incorporated onto the DNA when cells are grown in the absence of test compound as measured by liquid scintillation counting.

NHEK cells = experiment: Inhibition of cell growth, [3H]-thymidine incorporation, NHEK; type: cell-based; conditions: Homo sapiens, read-out: IC50, NHEK
Description: as §1, §2, §3, §4

A431 cells = experiment: Inhibition of cell growth, [3H]-thymidine incorporation, A431; type: cell-based; conditions: Homo sapiens, A-431, read-out: IC50, A431
Description: as §1
Cells were seeded at 10,000 cells/well in 96 well plates in complete media and allowed to grow to log phase. […] After overnight incubation in low serum (or EGF lacking) media, the compounds to be evaluated were added and cells remained in the presence of compounds for 48 to 72 hours. […] Cells were lysed in 0.5M NaOH for at least 30 min at 37° C. and radioactivity analyzed.
as §3, §4

SKBR3 cells = experiment: Inhibition of cell growth, [3H]-thymidine incorporation, SKBR3; type: cell-based; conditions: Homo sapiens
Description: Representative compounds of this invention were evaluated for their ability to inhibit the growth of the cell lines described below in vitro. The inhibition is quantitated by measuring the decrease in the incorporation of radio-labeled thymidine when the cells are grown in the presence of the inhibitor. A431 and SKBR3 cell lines are obtained from American Type Culture Collection, Rockville, Md. […] NHEK cells are obtained from Clonetics (San Diego, Calif.). Cells were routinely grown in a humidified incubator in 5% CO2 in air. […] Cells were seeded at 10,000 cells/well in 96 well plates in complete media and allowed to grow to log phase. […] After overnight incubation in low serum (or EGF lacking) media, the compounds to be evaluated were added and cells remained in the presence of compounds for 48 to 72 hours. Media with test compound was then removed and complete media was added back. The cells were allowed to grow for 18 hours. This is followed by incubation in [^3 H]thymidine (1mCi/ml in serum/EGF media) for 4 hours. Cells were lysed in 0.5M NaOH for at least 30 min at 37° C. and radioactivity analyzed. The cell growth inhibition data is provided below in TABLE 3. […] The % inhibition of the compound evaluated was determined for at least three different concentrations and the IC50 value evaluated from the dose response curve. […] CPM(control) is in units of counts per minute and is a number expressing the amount of [^3 H]thymidine incorporated onto the DNA when cells are grown in the absence of test compound as measured by liquid scintillation counting.

[3] = Table 6, 20 mg/kg IP, day 1 through 10
[4] = Table 6, 20 mg/kg IP, day 1 through 10, * p < 0.01
[5] = Table 6, 80 mg/kg IP, days 1, 5, and 9
[6] = Table 6, 80 mg/kg IP, days 1, 5, and 9, * p < 0.01
[7] = Table 7, 20 mg/kg IP, days through 10
[8] = Table 7, 80 mg/kg IP, days 1, 5, and 9
[9] = SK-BR-3, 48 to 72 hours with compound, read-out: IC50, SKBR3
[10] = Table 5, 20 mg/kg/dose IP, days 1 through 15
[11] = Table 4, 20 mg/kg/dose IP, days 1, 5, 9
[12] = Table 4, 20 mg/kg/dose IP, days 1 through 10
[13] = Table 4, 40 mg/kg/dose IP, days 1, 5, 9
[14] = Table 4, 80 mg/kg/dose IP, days 1, 5, 9
[15] = Table 7, 80 mg/kg IP, days 1, 5, and 9, * p < 0.01

O=C(C#Cc1ccccc1)Nc1ccc2ncnc(Nc3cccc(Br)c3)c2c1 [Example 14, N-[4-[(3-bromophenyl)amino]-6-quinazolinyl]-(3-phenyl-2-propynamide)]
IC50 [1]: 1000 nM

C=CC(=O)Nc1cc2c(Nc3cccc(C)c3)ncnc2cc1F [Comparator A, N-[4-[(3-methylphenyl)amino]-6-quinazolinyl]-7-fluoro-2-propenamide, reference compound]
activity relative to the compound of Example 9 (in words) ([2]; A431 tumors in mice, Tables 6 and 7): substantially less active than the compound of Example 9 | inhibition of tumor growth in vivo (in words) ([2]; A431 tumors in mice): failed to significantly reduce tumor growth at both doses tested | RTG Day 7 [2, 3]: 4.82 | RTG Day 14 [2, 3]: 7.36 | RTG Day 21 [2, 3]: 8.75 | S/T (No. Survivors/No. Treated on Day +21) [2, 3]: 9/10 | % T/C Day 7 [2, 4]: 87% | % T/C Day 14 [2, 4]: 63% | % T/C Day 21 [2, 4]: 56% | RTG Day 7 [2, 5]: 3.39 | RTG Day 14 [2, 5]: 5.60 | RTG Day 21 [2, 5]: 7.68 | S/T (No. Survivors/No. Treated on Day +21) [2, 5]: 10/10 | % T/C Day 7 [2, 6]: 61% | % T/C Day 14 [2, 6]: 48% | % T/C Day 21 [2, 6]: 48%

O=C(O)/C=C/C(=O)Nc1ccc2ncnc(Nc3cccc(Br)c3)c2c1 [Example 10, 4-[[4-[(3-Bromophenyl)amino]-6-quinazolinyl]amino]-4-oxo-(E)-2-butenoic acid]
IC50 (Neu-3T3 cells): 15 µM

CCCC(=O)Nc1ccc2ncnc(Nc3cccc(Br)c3)c2c1 [Comparator B, N-[4-[(3-bromophenyl)amino]-6-quinazolinyl]-butanamide, reference compound]
inhibition of tumor growth in vivo (in words) ([2]; A431 tumors in mice): failed to significantly reduce tumor growth at both doses tested | RTG Day 7 [2, 7]: 2.90 | RTG Day 14 [2, 7]: 4.19 | RTG Day 21 [2, 7]: 5.62 | RTG Day 28 [2, 7]: 8.04 | S/T (No. Survivors/No. Treated on Day +28) [2, 7]: 5/5 | RTG Day 7 [2, 8]: 3.37 | RTG Day 14 [2, 8]: 5.43 | RTG Day 21 [2, 8]: 6.21 | RTG Day 28 [2, 8]: 10.26 | S/T (No. Survivors/No. Treated on Day +28) [2, 8]: 5/5

CC=CC=CC(=O)Nc1ccc2ncnc(Nc3cccc(Br)c3)c2c1 [Example 11, N-[4-[(3-Bromophenyl)amino]-6-quinazolinyl]-2,4-hexadienamide]
IC50 (NHEK cells): 850 nM | IC50 [1]: 56 nM | IC50 (A431 cells): 800 nM | IC50 (Neu-3T3 cells; 48 to 72 hours with compound): 0.4 µM | IC50 (SKBR3 cells; [9]): 4 µM

COc1cc2ncnc(Nc3cccc(Br)c3)c2cc1OC [N-(3-bromophenyl)-6,7-dimethoxy-4-quinazolinamine, reference compound]
inhibition of tumor growth in vivo (in words) ([2]; A431 tumors in mice): devoid of antineoplastic activity | % T/C Day 7 [2, 10]: 95% | % T/C Day 14 [2, 10]: 116% | % T/C Day 21 [2, 10]: 128% | % T/C Day 28 [2, 10]: 140% | RTG Day 7 [2, 10]: 3.03 | RTG Day 14 [2, 10]: 6.58 | RTG Day 21 [2, 10]: 10.5 | RTG Day 28 [2, 10]: 14.47 | S/T (No. Survivors/No. Treated on Day +28) [2, 10]: 15/15

CC(C)=CC(=O)Nc1ccc2ncnc(Nc3cccc(Br)c3)c2c1 [Example 6, N-[4-[(3-Bromophenyl)amino]-6-quinazolinyl]-3-methyl-2-butenamide]
IC50 (Neu-3T3 cells; 48 to 72 hours with compound): > 50 µM | IC50 (SKBR3 cells; [9]): > 50 µM

CC#CC(=O)Nc1ccc2ncnc(Nc3cccc(Br)c3)c2c1 [Example 9, N-[4-[(3-Bromophenyl)amino]-6-quinazolinyl]-2-butynamide]
inhibition of tumor growth in vivo (in words) ([2]; A431 tumors in mice): significantly (p<0.01) inhibited human epidermoid tumor growth in vivo | % T/C Day 7 [2, 11]: 47% | % T/C Day 16 [2, 11]: 34% | % T/C Day 21 [2, 11]: 38% | % T/C Day 28 [2, 11]: 41% | RTG Day 7 [2, 11]: 1.72 | RTG Day 16 [2, 11]: 2.69 | RTG Day 21 [2, 11]: 4.33 | RTG Day 28 [2, 11]: 6.18 | S/T (No. Survivors/No. Treated on Day +28) [2, 11]: 5/5 | % T/C Day 7 [2, 12]: 20% | % T/C Day 16 [2, 12]: 13% | % T/C Day 21 [2, 12]: 11% | % T/C Day 28 [2, 12]: 17% | RTG Day 7 [2, 12]: 0.75 | RTG Day 16 [2, 12]: 1.01 | RTG Day 21 [2, 12]: 1.25 | RTG Day 28 [2, 12]: 2.53 | S/T (No. Survivors/No. Treated on Day +28) [2, 12]: 5/5 | % T/C Day 7 [2, 13]: 40% | % T/C Day 16 [2, 13]: 28% | % T/C Day 21 [2, 13]: 27% | % T/C Day 28 [2, 13]: 27% | RTG Day 7 [2, 13]: 1.48 | RTG Day 16 [2, 13]: 2.23 | RTG Day 21 [2, 13]: 3.05 | RTG Day 28 [2, 13]: 4.04 | S/T (No. Survivors/No. Treated on Day +28) [2, 13]: 5/5 | % T/C Day 7 [2, 14]: 18% | % T/C Day 16 [2, 14]: 11% | % T/C Day 21 [2, 14]: 9% | % T/C Day 28 [2, 14]: 9% | RTG Day 7 [2, 14]: 0.71 | RTG Day 16 [2, 14]: 0.91 | RTG Day 21 [2, 14]: 1.07 | RTG Day 28 [2, 14]: 1.36 | S/T (No. Survivors/No. Treated on Day +28) [2, 14]: 5/5 | % T/C Day 7 [2, 10]: 35% | % T/C Day 14 [2, 10]: 22% | % T/C Day 21 [2, 10]: 19% | % T/C Day 28 [2, 10]: 22% | RTG Day 7 [2, 10]: 1.11 | RTG Day 14 [2, 10]: 1.26 | RTG Day 21 [2, 10]: 1.51 | RTG Day 28 [2, 10]: 2.55 | S/T (No. Survivors/No. Treated on Day +28) [2, 10]: 14/15 | RTG Day 7 [2, 3]: 0.79 | RTG Day 14 [2, 3]: 1.39 | RTG Day 21 [2, 3]: 2.55 | S/T (No. Survivors/No. Treated on Day +21) [2, 3]: 10/10 | % T/C Day 7 [2, 4]: 14% | % T/C Day 14 [2, 4]: 12% | % T/C Day 21 [2, 4]: 16% | RTG Day 7 [2, 5]: 1.25 | RTG Day 14 [2, 5]: 2.50 | RTG Day 21 [2, 5]: 3.77 | S/T (No. Survivors/No. Treated on Day +21) [2, 5]: 10/10 | % T/C Day 7 [2, 6]: 18% | % T/C Day 14 [2, 6]: 21% | % T/C Day 21 [2, 6]: 24% | RTG Day 7 [2, 8]: 0.89 | RTG Day 14 [2, 8]: 1.50 | RTG Day 21 [2, 8]: 2.44 | RTG Day 28 [2, 8]: 3.45 | S/T (No. Survivors/No. Treated on Day +28) [2, 8]: 5/5 | % T/C Day 7 [2, 15]: 25% | % T/C Day 14 [2, 15]: 27% | % T/C Day 21 [2, 15]: 42% | % T/C Day 28 [2, 15]: 45% | IC50 (NHEK cells): 2 nM | IC50 (SKBR3 cells; SK-BR-3, read-out: IC50, SKBR3): 1.06 µM

O=C(O)/C=C\C(=O)Nc1ccc2ncnc(Nc3cccc(Br)c3)c2c1 [Example 4, 4-[[4-[(3-Bromophenyl)amino]-6-quinazolinyl]amino]-4-oxo-(Z)-2-butenoic acid]
IC50 (NHEK cells): 170 nM
